“And” between values parts separate entries of the source, which are not always exact repeats. Identical values can stand only once. Like-named read-outs stand apart in the source and are kept apart here. Where a SMILES comes first, the peptide text is derived from it. Where no end group is shown, it is not given here. The star is where a group is joined. Succinimide(1-Et,3-yl) = CCN1C(=O)CC(*)C1=O
Target: T1, human CRHR2 (Homo sapiens, UniProt Q13324)
T1 construct: expressed in transfected cells
T1 sequence (Q13324 1-411): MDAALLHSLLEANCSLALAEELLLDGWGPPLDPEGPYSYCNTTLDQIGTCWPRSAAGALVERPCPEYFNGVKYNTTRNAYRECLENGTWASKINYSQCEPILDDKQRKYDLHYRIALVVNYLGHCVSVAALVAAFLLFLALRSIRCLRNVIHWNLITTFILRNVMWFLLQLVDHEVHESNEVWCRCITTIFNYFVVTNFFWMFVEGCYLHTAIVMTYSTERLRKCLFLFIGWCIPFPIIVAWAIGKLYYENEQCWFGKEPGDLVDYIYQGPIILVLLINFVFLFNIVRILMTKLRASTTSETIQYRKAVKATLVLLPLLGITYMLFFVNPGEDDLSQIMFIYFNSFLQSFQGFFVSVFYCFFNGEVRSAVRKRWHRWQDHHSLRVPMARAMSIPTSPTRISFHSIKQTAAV
Experiment: cAMP assay, h-CRHR2 transfected SK-N-MC cells
Format: cell-based
Conditions: for EC50: read-out: pA50 (converted); for Log DR [M]: h-SCP control pA50 minus test compound pA50 within the same assay batch; for αmax: normalized to the maximum response to h-SCP
Method in brief: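 SK-N-MC cells stably expressing human CRHR2 were treated with peptides (1 pM to 1 μM) for 60 min at 37 °C in IBMX-containing medium, with 10 μM forskolin as positive control. Cells were lysed with 0.5 M HCl and cAMP measured by [125I]-cAMP competition flash plate. A50 came from Hill-equation fits, normalised to h-SCP maximum.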

[1] = Table 13, cysteine mutation, N-ethylmaleimide capping, pegylation
[2] = Table 12, amidation and N-terminal deletions, normalized to maximum response to h-SCP, 3-5 replicate experiments

Compound	EC50 [1] [nM]	Log DR [M] (Table 13)	nH (Table 12)	EC50 [2]	αmax (Table 12)
CC[C@H](C)[C@H](NC(=O)[C@H](CCC(N)=O)NC(=O)[C@H](C)NC(=O)[C@H](CCSC)NC(=O)[C@H](CC(C)C)NC(=O)[C@H](Cc1c[nH]cn1)NC(=O)[C@H](C)NC(=O)[C@H](CC(N)=O)NC(=O)[C@H](C)NC(=O)[C@H](C)NC(=O)[C@H](C)NC(=O)[C@H](CCC(N)=O)NC(=O)[C@H](C)NC(=O)[C@H](CCCNC(=N)N)NC(=O)[C@H](CC(C)C)NC(=O)[C@H](CC(N)=O)NC(=O)[C@H](CCCCN)NC(=O)[C@H](C)NC(=O)[C@H](CCCCN)NC(=O)[C@H](C)NC(=O)[C@@H](NC(=O)[C@H](CC(N)=O)NC(=O)[C@H](Cc1ccccc1)NC(=O)[C@H](CC(C)C)NC(=O)[C@H](CSC1CC(=O)N(CC)C1=O)NC(=O)[C@H](CC(N)=O)NC(=O)[C@H](CCSC)NC(=O)[C@@H](NC(=O)[C@H](CC(N)=O)NC(=O)[C@@H](NC(=O)[C@@H]1CCCN1C(=O)[C@@H](NC(=O)[C@H](CC(=O)O)NC(=O)[C@H](CC(C)C)NC(=O)[C@H](CO)NC(=O)[C@H](CC(C)C)NC(=O)[C@@H](NC(=O)[C@H](Cc1ccccc1)NC(=O)[C@H](CCCCN)NC(=O)[C@@H](N)[C@@H](C)O)[C@@H](C)O)C(C)C)[C@@H](C)O)[C@@H](C)CC)[C@@H](C)CC)C(N)=O (stereo partly drawn) [SEQ ID NO: 54, TKFTL SLDVP TNIMN C(-NES)LFNI AKAKN LRAQA AANAH LMAQI-NH2] (H-TKFTLSLDVPTNIMNC(Succinimide(1-Et,3-yl))LFNIAKAKNLRAQAAANAHLMAQI-NH2; N-terminus assumed)	0.282	−0.08			
CKFTLSLDVPTNIMNLLFNIAKAKNLRAQAAANAHLMAQI-NH2 [SEQ ID NO: 2, CKFTLSLDVPTNIMNLLFNIAKAKNLRAQAAANAHLMAQI-NH2]	1.07	0.72			
H-TKFTLSLDVPTNCMNLLFNIAKAKNLRAQAAANAHLMAQI-NH2 [SEQ ID NO: 14, TKFTLSLDVPTNCMNLLFNIAKAKNLRAQAAANAHLMAQI-NH2]	~45.7	>2			
H-TKFTLSLDVPTNIMCLLFNIAKAKNLRAQAAANAHLMAQI-NH2 [SEQ ID NO: 16, TKFTLSLDVPTNIMCLLFNIAKAKNLRAQAAANAHLMAQI-NH2]	1.17	0.76			
H-TKFTLSLDVPTNIMNLLCNIAKAKNLRAQAAANAHLMAQI-NH2 [SEQ ID NO: 19, TKFTLSLDVPTNIMNLLCNIAKAKNLRAQAAANAHLMAQI-NH2]	9.77	1.67			
H-TKFTLSLDVPTNIMNLLFNIAKAKNLRAQAAANAHLMCQI-NH2 [SEQ ID NO: 39, TKFTLSLDVPTNIMNLLFNIAKAKNLRAQAAANAHLMCQI-NH2]	0.617	0.41			
H-TKFTLSLDVPTNIMNLLFNIAKAKNLRAQAAANCHLMAQI-NH2 [SEQ ID NO: 35, TKFTLSLDVPTNIMNLLFNIAKAKNLRAQAAANCHLMAQI-NH2]	1.17	0.70			
H-TKFTLSLDVPTNIMNLLFNIAKAKNLRAQAACNAHLMAQI-NH2 [SEQ ID NO: 33, TKFTLSLDVPTNIMNLLFNIAKAKNLRAQAACNAHLMAQI-NH2]	0.851	0.45			
H-TKFTLSLDVPTNIMNLLFNIAKAKNLRAQACANAHLMAQI-NH2 [SEQ ID NO: 32, TKFTLSLDVPTNIMNLLFNIAKAKNLRAQACANAHLMAQI-NH2]	0.389	0.11			
H-TKFTLSLDVPTNIMNLLFNIAKAKNLRCQAAANAHLMAQI-NH2 [SEQ ID NO: 29, TKFTLSLDVPTNIMNLLFNIAKAKNLRCQAAANAHLMAQI-NH2]	0.339	0.00			
KFTLSLDVPTNIMNLLFNIAKAKNLRAQAAANAHLMAQI-NH2 [SEQ ID NO: 107, KFTLSLDVPTNIMNLLFNIAKAKNLRAQAAANAHLMAQI-NH2]			1.07	0.575 nM and 0.562 nM	111.3
LSLDVPTNIMNLLFNIAKAKNLRAQAAANAHLMAQI-NH2 [SEQ ID NO: 109, LSLDVPTNIMNLLFNIAKAKNLRAQAAANAHLMAQI-NH2]			0.74	46.8 nM and 45.7 nM	109.6
TCFTLSLDVPTNIMNLLFNIAKAKNLRAQAAANAHLMAQI-NH2 [SEQ ID NO: 3, TCFTLSLDVPTNIMNLLFNIAKAKNLRAQAAANAHLMAQI-NH2]	1.07	0.72			
TKCTLSLDVPTNIMNLLFNIAKAKNLRAQAAANAHLMAQI-NH2 [SEQ ID NO: 4, TKCTLSLDVPTNIMNLLFNIAKAKNLRAQAAANAHLMAQI-NH2]	2.24	1.03			
TKFCLSLDVPTNIMNLLFNIAKAKNLRAQAAANAHLMAQI-NH2 [SEQ ID NO: 5, TKFCLSLDVPTNIMNLLFNIAKAKNLRAQAAANAHLMAQI-NH2]	1.17	0.76			
TKFTCSLDVPTNIMNLLFNIAKAKNLRAQAAANAHLMAQI-NH2 [SEQ ID NO: 6, TKFTCSLDVPTNIMNLLFNIAKAKNLRAQAAANAHLMAQI-NH2]	0.851	0.61			
TKFTLCLDVPTNIMNLLFNIAKAKNLRAQAAANAHLMAQI-NH2 [SEQ ID NO: 7, TKFTLCLDVPTNIMNLLFNIAKAKNLRAQAAANAHLMAQI-NH2]	25.1	2.08			
TKFTLSCDVPTNIMNLLFNIAKAKNLRAQAAANAHLMAQI-NH2 [SEQ ID NO: 8, TKFTLSCDVPTNIMNLLFNIAKAKNLRAQAAANAHLMAQI-NH2]	~151	2.86			

Compound	EC50 [1] [nM]	Log DR [M] (Table 13)	nH (Table 12)	EC50 [2]	αmax (Table 12)
TKFTLSLCVPTNIMNLLFNIAKAKNLRAQAAANAHLMAQI-NH2 [SEQ ID NO: 9, TKFTLSLCVPTNIMNLLFNIAKAKNLRAQAAANAHLMAQI-NH2]	15.8	1.89			
TKFTLSLDCPTNIMNLLFNIAKAKNLRAQAAANAHLMAQI-NH2 [SEQ ID NO: 10, TKFTLSLDCPTNIMNLLFNIAKAKNLRAQAAANAHLMAQI-NH2]	5.25	1.30			
TKFTLSLDVCTNIMNLLFNIAKAKNLRAQAAANAHLMAQI-NH2 [SEQ ID NO: 11, TKFTLSLDVCTNIMNLLFNIAKAKNLRAQAAANAHLMAQI-NH2]	1.74	0.82			
TKFTLSLDVPCNIMNLLFNIAKAKNLRAQAAANAHLMAQI-NH2 [SEQ ID NO: 12, TKFTLSLDVPCNIMNLLFNIAKAKNLRAQAAANAHLMAQI-NH2]	13.8	1.72			
TKFTLSLDVPTCIMNLLFNIAKAKNLRAQAAANAHLMAQI-NH2 [SEQ ID NO: 13, TKFTLSLDVPTCIMNLLFNIAKAKNLRAQAAANAHLMAQI-NH2]	0.257	−0.01			
TKFTLSLDVPTNICNLLFNIAKAKNLRAQAAANAHLMAQI-NH2 [SEQ ID NO: 15, TKFTLSLDVPTNICNLLFNIAKAKNLRAQAAANAHLMAQI-NH2]	2.09	0.90			
TKFTLSLDVPTNIMNCLFNIAKAKNLRAQAAANAHLMAQI-NH2 [SEQ ID NO: 17, TKFTLSLDVPTNIMNCLFNIAKAKNLRAQAAANAHLMAQI-NH2]	0.316	0.02			
TKFTLSLDVPTNIMNLCFNIAKAKNLRAQAAANAHLMAQI-NH2 [SEQ ID NO: 18, TKFTLSLDVPTNIMNLCFNIAKAKNLRAQAAANAHLMAQI-NH2]	3.89	1.11			
TKFTLSLDVPTNIMNLLFCIAKAKNLRAQAAANAHLMAQI-NH2 [SEQ ID NO: 20, TKFTLSLDVPTNIMNLLFCIAKAKNLRAQAAANAHLMAQI-NH2]	1	0.52			
TKFTLSLDVPTNIMNLLFNCAKAKNLRAQAAANAHLMAQI-NH2 [SEQ ID NO: 21, TKFTLSLDVPTNIMNLLFNCAKAKNLRAQAAANAHLMAQI-NH2]	1.78	0.77			
TKFTLSLDVPTNIMNLLFNIACAKNLRAQAAANAHLMAQI-NH2 [SEQ ID NO: 23, TKFTLSLDVPTNIMNLLFNIACAKNLRAQAAANAHLMAQI-NH2]	2.82	1.13			
TKFTLSLDVPTNIMNLLFNIAKACNLRAQAAANAHLMAQI-NH2 [SEQ ID NO: 25, TKFTLSLDVPTNIMNLLFNIAKACNLRAQAAANAHLMAQI-NH2]	0.676	0.35			
TKFTLSLDVPTNIMNLLFNIAKAKCLRAQAAANAHLMAQI-NH2 [SEQ ID NO: 26, TKFTLSLDVPTNIMNLLFNIAKAKCLRAQAAANAHLMAQI-NH2]	0.363	0.08			
TKFTLSLDVPTNIMNLLFNIAKAKNCRAQAAANAHLMAQI-NH2 [SEQ ID NO: 27, TKFTLSLDVPTNIMNLLFNIAKAKNCRAQAAANAHLMAQI-NH2]	1.74	0.76			
TKFTLSLDVPTNIMNLLFNIAKAKNLRACAAANAHLMAQI-NH2 [SEQ ID NO: 30, TKFTLSLDVPTNIMNLLFNIAKAKNLRACAAANAHLMAQI-NH2]	3.98	1.28			
TKFTLSLDVPTNIMNLLFNIAKAKNLRAQAAACAHLMAQI-NH2 [SEQ ID NO: 34, TKFTLSLDVPTNIMNLLFNIAKAKNLRAQAAACAHLMAQI-NH2]	~479	>3.19			
TKFTLSLDVPTNIMNLLFNIAKAKNLRAQAAANACLMAQI-NH2 [SEQ ID NO: 36, TKFTLSLDVPTNIMNLLFNIAKAKNLRAQAAANACLMAQI-NH2]	0.794	0.42			
